Here are results for three molecules from ChEMBL document CHEMBL1128964, “Synthesis and analgesic activity of Epibatidine analogues” (Bioorg Med Chem Lett, 1996).

Activity calls are given as the source filed them. No cut-off for these calls is given here.

A short description of data set [1]: Lethal dose determined in Mice. It counts as toxicity. Conditions: mouse, in vivo.
In data set [2] the test system is Mus musculus. Briefly: Dose of compound that caused analgesic activity in mice after intraperitoneal administration. Type of data set: functional.
For data set [3], the system named is Mus musculus. The data set is described as follows: Compound was tested for analgesic activity in mice after intraperitoneal administration at a dose of 10 ug/kg; Significant. It counts as functional, organism-based.
In data set [4] the test system is Mus musculus. The data set is described as follows: Compound was tested for analgesic activity in mice after intraperitoneal administration at a dose of 10 ug/kg; less potent. Type of data set: functional, organism-based.

As usually defined, the LD50 is the dose at which mortality reaches 50%. High values mean lower toxicity, low ones greater toxicity. With `Clc1ccc(C2CC3CCCC2N3)cn1` (centres undefined) [HOMOEPIBATIDINE], the LD50 in data set [1] stood at 10 mg/kg. This molecule gave a Dose in the data set with Mus musculus [2] of 0.04 mg/kg.
For the molecule `Clc1ccc(C2CC3CCC2N3)cn1` (racemic), in the data set with Mus musculus [3], the result was Active.
With `Clc1ccc(C2CCNC2)cn1` (centres undefined), in the data set with Mus musculus [4], the Activity result is listed as “less potent”.
